Results taken from patent US8952024B2, “Herbicidal pyrimidone derivatives” (E I du Pont de Nemours and Company, priority 2009, dated 2015).

How the values were obtained:
Format in all cases: in vivo
corn (Zea mays) = assay: Test B pre-/postemergence plant response
Summary of the method: (§1)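 Seeds sown in loam–sand blend were treated preemergence, and plants at 2–18 cm (1- to 4-leaf stage) in peat-based medium were treated postemergence; compounds were formulated in non-phytotoxic solvent with surfactant. After 13–15 days in greenhouse, response was visually rated against controls, 0 (no effect) to 100 (complete control).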

[1] = tested on: ragweed (common ragweed, Ambrosia elatior); assay: Test B pre-/postemergence plant response
Summary of the method: as §1

[2] = tested on: Surinam grass (Brachiaria decumbens); assay: Test B pre-/postemergence plant response
Summary of the method: as §1

soybean (Glycine max) = assay: Test B pre-/postemergence plant response
Summary of the method: as §1

[3] = tested on: morningglory (Ipomoea coccinea); assay: Test B pre-/postemergence plant response
Summary of the method: as §1

[4] = tested on: cocklebur (Xanthium strumarium); assay: Test B pre-/postemergence plant response
Summary of the method: as §1

[5] = tested on: blackgrass (Alopecurus myosuroides); assay: Test B pre-/postemergence plant response
Summary of the method: as §1

[6] = tested on: bermudagrass (Cynodon dactylon); assay: Test B pre-/postemergence plant response
Summary of the method: as §1

[7] = tested on: Italian ryegrass (Lolium multiflorum); assay: Test B pre-/postemergence plant response
Summary of the method: as §1

[8] = tested on: umbrella sedge (Cyperus difformis); assay: Test B flooded paddy test
Summary of the method: (§2)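 Rice, umbrella sedge, ducksalad and barnyardgrass were grown to the 2-leaf stage, flooded to 3 cm, and compound was applied directly to the paddy water, with that depth kept throughout. After 13 to 15 days in the greenhouse, plants were visually rated against controls on a 0 (no effect) to 100 (complete control) scale.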

[9] = tested on: barnyardgrass (Echinochloa crus-galli); assay: Test B flooded paddy test
Summary of the method: as §2

rice (Oryza sativa) = assay: Test B flooded paddy test
Summary of the method: as §2

[10] = tested on: ducksalad (Heteranthera limosa); assay: Test B flooded paddy test
Summary of the method: as §2

[11] = 250 g ai/ha, Preemergence, 0 to 100 scale
[12] = Postemergence, 31 g ai/ha, scale 0 to 100 (0 no effect, 100 complete control)
[13] = Postemergence, 62 g ai/ha, scale 0 (no effect) to 100 (complete control), 13 to 15 days
[14] = Postemergence, 125 g ai/ha, visual rating after 13 to 15 days, scale 0 (no effect) to 100 (complete control)
[15] = Postemergence, 250 g ai/ha, scale 0 to 100
[16] = Preemergence, 31 g ai/ha, scale 0 to 100 (0 no effect, 100 complete control)
[17] = Preemergence, 62 g ai/ha, scale 0 to 100 (0 no effect, 100 complete control)
[18] = Preemergence, 125 g ai/ha, 0 to 100 scale
[19] = 250 g ai/ha, flooded paddy test, visual rating on 0 to 100 scale (0 no effect, 100 complete control) after 13 to 15 days
[20] = Flood (flooded paddy test), 62 g ai/ha, scale of 0 to 100 where 0 is no effect and 100 is complete control, 13 to 15 days

SMILES: Cc1cccc(Cl)c1-n1c(-c2ccccc2)ncc(C(=O)C2=C(O)CCCC2=O)c1=O [Compound 46]
- Plant response rating, Corn (corn (Zea mays); [11]): 0
- Plant response rating, Corn (corn (Zea mays); [12]): 20
- Plant response rating, Corn (corn (Zea mays); [13]): 35
- Plant response rating, Corn (corn (Zea mays); [14]): 60
- Corn plant response rating (corn (Zea mays); [15]): 75
- Plant response rating, Corn (corn (Zea mays); [16]): 0
- Plant response rating, Corn (corn (Zea mays); [17]): 0
- Corn plant response rating (corn (Zea mays); [18]): 0
- Plant response rating, Ragweed [1, 11]: 100
- Plant response rating, Ragweed [1, 13]: 75
- Plant response rating, Ragweed [1, 14]: 80
- Plant response rating, Ragweed [1, 16]: 100
- Ragweed plant response rating [1, 18]: 100
- Plant response rating, Surinam Grass [2, 11]: 90
- Plant response rating, Surinam Grass [2, 13]: 75
- Plant response rating, Surinam Grass [2, 14]: 80
- Plant response rating, Surinam Grass [2, 16]: 0
- Surinam Grass plant response rating [2, 18]: 75
- Plant response rating, Soybean (soybean (Glycine max); [11]): 25
- Plant response rating, Soybean (soybean (Glycine max); [13]): 80
- Plant response rating, Soybean (soybean (Glycine max); [14]): 90
- Plant response rating, Soybean (soybean (Glycine max); [16]): 0
- Soybean plant response rating (soybean (Glycine max); [18]): 15
- Plant response rating, Morningglory [3, 11]: 0
- Plant response rating, Morningglory [3, 13]: 30
- Plant response rating, Morningglory [3, 14]: 45
- Plant response rating, Morningglory [3, 16]: 0
- Plant response rating, Morningglory [3, 17]: 0
- Morningglory plant response rating [3, 18]: 0
- Plant response rating, Cocklebur [4, 11]: 15
- Plant response rating, Cocklebur [4, 12]: 75
- Plant response rating, Cocklebur [4, 13]: 80
- Plant response rating, Cocklebur [4, 14]: 80
- Cocklebur plant response rating [4, 15]: 90
- Plant response rating, Cocklebur [4, 16]: 0
- Plant response rating, Cocklebur [4, 17]: 0
- Cocklebur plant response rating [4, 18]: 0
- Plant response rating, Blackgrass [5, 11]: 0
- Plant response rating, Blackgrass [5, 12]: 0
- Plant response rating, Blackgrass [5, 13]: 5
- Plant response rating, Blackgrass [5, 14]: 10
- Blackgrass plant response rating [5, 15]: 10
- Plant response rating, Blackgrass [5, 16]: 0
- Plant response rating, Blackgrass [5, 17]: 0
- Blackgrass plant response rating [5, 18]: 0
- Plant response rating, Bermudagrass [6, 11]: 98
- Plant response rating, Bermudagrass [6, 12]: 80
- Plant response rating, Bermudagrass [6, 13]: 85
- Plant response rating, Bermudagrass [6, 14]: 90
- Bermudagrass plant response rating [6, 15]: 90
- Plant response rating, Bermudagrass [6, 16]: 0
- Plant response rating, Ryegrass, Italian [7, 11]: 0
- Plant response rating, Ryegrass, Italian [7, 13]: 5
- Plant response rating, Ryegrass, Italian [7, 14]: 5
- Plant response rating, Ryegrass, Italian [7, 16]: 0
- Ryegrass, Italian plant response rating [7, 18]: 0
- Plant response rating, Flood, Sedge, Umbrella [8, 19]: 65
- Plant response rating, Sedge, Umbrella [8, 20]: 45
- Plant response rating, Flood, Barnyardgrass [9, 19]: 0
- Plant response rating, Barnyardgrass [9, 20]: 0
- Plant response rating, Flood, Rice (rice (Oryza sativa); [19]): 10
- Plant response rating, Rice (rice (Oryza sativa); [20]): 10
- Plant response rating, Flood, Ducksalad [10, 19]: 20
- Plant response rating, Ducksalad [10, 20]: 20
